Data taken from ChEMBL document CHEMBL1201862, “PubChem BioAssay data set” (2004).
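Interpolation was linear, between the two tested concentrations surrounding the appropriate level; five concentrations were tested over 48 hours in 96-well plates. GI50 marks 50% less growth.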 Calls of active or inactive are those of the source. No stated cut-off is given here; in the data, active = GI50 up to about 1.1 µM and inactive = higher.

Legend:
Test in all cases: NCI anticancer screen, dose series, 48 h
[1] = system: HL-60
[2] = system: SW-620
[3] = system: T47D
[4] = system: A549
[5] = system: IGROV-1
[6] = system: RXF 393
[7] = system: SNB-75
[8] = system: NCI-H226
[9] = system: UACC-257
[10] = system: HOP-62
[11] = system: BT-549
[12] = system: NCI-H23
[13] = system: SK-MEL-2
[14] = system: SF-539
[15] = system: TK-10
[16] = system: COLO 205
[17] = system: MDA-N
[18] = system: OVCAR-8
[19] = system: DU-145
[20] = system: RPMI-8226

Measured: GI50

COc1cc([N+](=O)[O-])c(OC)c2c(Nc3ccc(S(=O)(=O)O)c4cc(S(=O)(=O)O)cc(S(=O)(=O)O)c34)cc(C)nc12
inactive: [1] > 100 µM | [2] > 100 µM | [3] > 100 µM | [4] > 100 µM | [5] > 100 µM | [6] > 100 µM | [7] > 100 µM | [8] > 100 µM | [9] > 100 µM | [10] > 100 µM | [11] > 100 µM | [12] > 100 µM | [13] > 100 µM | [14] > 100 µM | [15] > 100 µM | [16] > 100 µM | [17] > 100 µM | [18] > 100 µM | [19] > 100 µM

BrCc1ccc(CBr)c2c1-c1c(CBr)ccc3ccc(CBr)c-2c13
inactive: [1] 40.6 µM | [2] > 100 µM | [3] > 100 µM | [4] > 100 µM | [5] > 100 µM | [7] > 100 µM | [8] > 100 µM | [9] > 100 µM | [10] > 100 µM | [11] > 100 µM | [20] 95.7 µM | [13] > 100 µM | [14] 56.9 µM | [15] > 100 µM | [17] > 100 µM | [18] > 100 µM | [19] > 100 µM

CC(=O)N1N=C(N)CC1=O
inactive: [1] > 100 µM | [2] > 100 µM | [3] > 100 µM | [4] > 100 µM | [5] > 100 µM | [6] > 100 µM | [7] > 100 µM | [8] > 100 µM | [9] > 100 µM | [10] > 100 µM | [11] > 100 µM | [12] > 100 µM | [13] > 100 µM | [14] > 100 µM | [15] > 100 µM | [16] > 100 µM | [17] > 100 µM | [18] > 100 µM | [19] > 100 µM

FC(F)(Sc1ncc[nH]1)c1nc2ccccc2o1
inactive: [2] > 100 µM | [3] > 100 µM | [4] > 100 µM | [5] > 100 µM | [6] > 100 µM | [7] > 100 µM | [8] > 100 µM | [9] > 100 µM | [10] > 100 µM | [11] > 100 µM | [12] > 100 µM | [20] > 100 µM | [13] > 100 µM | [14] > 100 µM | [15] > 100 µM | [16] > 100 µM | [17] > 100 µM | [18] > 100 µM | [19] > 100 µM

CC(=O)CCC1(C(=O)OCC(C)C)CCCC1=O (configuration not stated)
inactive: [1] > 100 µM | [2] > 100 µM | [3] > 100 µM | [4] > 100 µM | [5] > 100 µM | [6] > 100 µM | [7] > 100 µM | [8] > 100 µM | [9] > 100 µM | [10] > 100 µM | [11] > 100 µM | [12] > 100 µM | [13] > 100 µM | [14] > 100 µM | [15] > 100 µM | [16] > 100 µM | [17] > 100 µM | [18] > 100 µM | [19] > 100 µM

Cc1cc(S(=O)(=O)N=C2N(Cc3ccccc3)CCN2Cc2ccccc2)c(S)cc1Cl
inactive: [1] > 100 µM | [2] > 100 µM | [3] 10.8 µM | [4] > 100 µM | [5] > 100 µM | [6] 78.3 µM | [7] 69.8 µM | [8] 85.5 µM | [9] > 100 µM | [10] > 100 µM | [11] > 100 µM | [12] > 100 µM | [20] > 100 µM | [14] > 100 µM | [15] > 100 µM | [16] > 100 µM | [17] > 100 µM | [18] > 100 µM | [19] > 100 µM
